Common to all, as to type: functional
Assay [1] deals with Lemna minor. In words: Herbicidal activity against Lemna minor (common duckweed) at 1 ppm after 9 days relative to control.
Assay [2] has as its system Phytophthora infestans. In words: microbe, parasite or virus in culture. The note with it: in Oryza sativa, 24 h.
Assay [3] deals with Ustilago maydis. Put plainly: Antifungal activity against Ustilago maydis on rice plant at 25 ppm after 24 hr. The note with it: Mycosarcoma maydis.
For assay [4], the system named is Puccinia recondita. Put plainly: Antifungal activity against Puccinia recondita on wheat plant assessed as disease control at 100 ppm after 24 hr.
Assay [5] relates to Zymoseptoria tritici. In words: Antifungal activity against Zymoseptoria tritici on wheat plant at 25 ppm after 24 hr.
Assay [6] has as its system Parastagonospora nodorum. In words: Antifungal activity against Phaeosphaeria nodorum on wheat plant assessed as disease control at 100 ppm after 24 hr.
The test system of assay [7] is Rhizoctonia solani. In words: Antifungal activity against Rhizoctonia solani on rice plant at 25 ppm after 24 hr.
The subject of assay [8] is Blumeria graminis f. sp. tritici. Put plainly: Antifungal activity against Blumeria graminis f. sp. tritici on wheat plant assessed as disease control at 100 ppm after 24 hr.
The test system of assay [9] is Parastagonospora nodorum. Put plainly: Antifungal activity against Phaeosphaeria nodorum on wheat plant at 25 ppm after 24 hr.
The subject of assay [10] is Pyricularia oryzae. Put plainly: microbe, parasite or virus in culture. As to conditions: 24 h.
The test system of assay [11] is Agrostis stolonifera var. palustris. In words: Herbicidal activity against Agrostis stolonifera var. palustris at 1 ppm after 9 days relative to control.

For the molecule `CCCCc1c2[n+](cc3c(OC)c(OC)ccc13)CCc1cc3c(cc1-2)OCO3.[Cl-]`, the Activity was 60% in [1]; 0% in assay [4]; 67% in assay [6]; 0% in assay [8]; 0% in assay [11]. In addition, the inhibition at 25 ppm came out at 0% in assay [2]; 0% in assay [3]; 90% in assay [5]; 0% in assay [7]; 0% in assay [9]; 0% in assay [10].
For the molecule `COc1ccc2c(c1OC)C[N@@+]1(C)CCc3cc4c(cc3[C@@H]1[C@@H]2C)OCO4.[Cl-]`, the Activity in [1], in [4], in assay [6], in assay [8] and in assay [11] was 0% throughout. For the same molecule, the inhibition at 25 ppm in assay [2], in assay [3], in [5], in assay [7], in [9] and in assay [10] was 0% throughout.
Take `COc1ccc2cc3[n+](cc2c1O)CCc1cc2c(cc1-3)OCO2` [BERBERRUBINE]: the Activity in [1], in assay [4], in [6], in assay [8] and in [11] was 0% each time. In addition, the inhibition at 25 ppm in [2], in assay [3], in assay [5], in [7], in [9] and in assay [10] was 0% throughout.
Take `CCCc1c2[n+](cc3c(OC)c(OC)ccc13)CCc1cc3c(cc1-2)OCO3.[Cl-]`: the Activity is on record as 65% in assay [1]; 0% in [4]; 67% in [6]; 0% in assay [8]; 0% in assay [11]. Moreover, the inhibition at 25 ppm in assay [2] is 0%; in [3] it was 0%; in assay [5] it was 90%; in assay [7], 0%; in assay [9], 0%; in [10], 0%.
`CCCc1c2[n+](cc3c(OC)c(OC)ccc13)CCc1cc(OC)c(OC)cc1-2.[Cl-]`: the Activity in assay [1] came out at 65%; in [4], 0%; in [6], 73%; in [8] it was 0%; in assay [11], 0%. The inhibition at 25 ppm in assay [2], in assay [3], in assay [5], in assay [7], in assay [9] and in [10] was 0% in each case.
Regarding `COc1ccc2c(c1OC)CN1CCc3cc4c(cc3[C@@H]1[C@H]2O)OCO4.Cl`, the Activity in assay [1], in assay [4], in assay [6], in [8] and in assay [11] was 0% each time. Moreover, the inhibition at 25 ppm in assay [2], in assay [3], in [5], in assay [7], in assay [9] and in assay [10] was 0% throughout.
On to `CCOc1c(OC)ccc2c(CC)c3[n+](cc12)CCc1cc2c(cc1-3)OCO2.[Cl-]` [9-O-ETHYL-13-ETHYLBERBERRUBINE], for which the Activity in [1] was determined as 70%; in assay [4], 8%; in [6], 87%; in assay [8], 0%; in [11] it was 0%. In addition, the inhibition at 25 ppm in [2] was 0%; in assay [3], 0%; in [5], 90%; in [7] it was 0%; in assay [9], 0%; in assay [10], 0%.

A word on the inhibition: it is the drop in the measured response relative to a control, in per cent. A high value points to a strong effect.
